“And” between values parts separate entries of the source, which are not always exact repeats. Identical values can stand only once. Where a SMILES comes first, the peptide text is derived from it. [ ]: non-standard residue; d: D form. The star is where a group is joined. Benzoyl(4-SO2NH2) = NS(=O)(=O)c1ccc(C(=O)*)cc1; Phe(4-Cl) = N[C@@H](Cc1ccc(Cl)cc1)C(=O)O; Nle = CCCC[C@H](N)C(=O)O
What follows are compounds tested against T1, Carbonic anhydrase 2 (Homo sapiens, UniProt P00918) (assay: Dissociation constant against human carbonic anhydrase II at 37 degree Centigrade).

Kd	SMILES
400 nM	NS(=O)(=O)c1ccc(C(=O)NCC(=O)NCC(=O)N[C@@H](CC(=O)O)C(=O)O)cc1
371 nM	NS(=O)(=O)c1ccc(C(=O)NCC(=O)NCC(=O)NCC(=O)N[C@@H](CCC(=O)O)C(=O)O)cc1
240 nM	NC(=O)CCC(NC(=O)CNC(=O)c1ccc(S(N)(=O)=O)cc1)C(=O)O (centres undefined)
140 nM	NS(=O)(=O)c1ccc(C(=O)NCC(=O)NCC(=O)NCC(=O)N[C@@H](Cc2ccc(F)cc2)C(=O)O)cc1
290 nM	NS(=O)(=O)c1ccc(C(=O)NCC(=O)NCC(=O)N[C@@H](CO)C(=O)O)cc1
420 nM	NS(=O)(=O)c1ccc(C(=O)NCC(=O)NC(CC(=O)O)C(=O)O)cc1 (centres undefined)
210 nM	CC(C)(C)[C@H](NC(=O)CNC(=O)CNC(=O)CNC(=O)c1ccc(S(N)(=O)=O)cc1)C(=O)O
360 nM	NS(=O)(=O)c1ccc(C(=O)NCC(=O)NCC(=O)NCC(=O)N[C@@H](CO)C(=O)O)cc1
120 nM	NS(=O)(=O)c1ccc(C(=O)NCC(=O)NCC(=O)N[C@@H](Cc2ccc(F)cc2)C(=O)O)cc1
140 nM	NC(=O)CCC(NC(=O)c1ccc(S(N)(=O)=O)cc1)C(=O)O (centres undefined)
170 nM	C[C@H](NC(=O)CNC(=O)c1ccc(S(N)(=O)=O)cc1)C(=O)O
290 nM	N=C(N)NCCC[C@H](NC(=O)CNC(=O)CNC(=O)CNC(=O)c1ccc(S(N)(=O)=O)cc1)C(=O)O
290 nM	NC(=O)CC(NC(=O)CNC(=O)c1ccc(S(N)(=O)=O)cc1)C(=O)O (centres undefined)
270 nM	NC(=O)CC[C@H](NC(=O)CNC(=O)CNC(=O)c1ccc(S(N)(=O)=O)cc1)C(=O)O
100 nM	NS(=O)(=O)c1ccc(C(=O)NCC(=O)NC(Cc2ccc(Cl)cc2)C(=O)O)cc1 (centres undefined)
160 nM	NS(=O)(=O)c1ccc(C(=O)NCC(=O)NCC(=O)NCC(=O)N[C@@H](Cc2ccc([N+](=O)[O-])cc2)C(=O)O)cc1
330 nM	C[C@@H](O)[C@H](NC(=O)CNC(=O)CNC(=O)c1ccc(S(N)(=O)=O)cc1)C(=O)O
220 nM	CSCC[C@@H](NC(=O)CNC(=O)CNC(=O)CNC(=O)c1ccc(S(N)(=O)=O)cc1)C(=O)O
27 nM	COc1ccc(CC(NC(=O)c2ccc(S(N)(=O)=O)cc2)C(=O)O)cc1 (centres undefined)
290 nM	NC(=O)C[C@H](NC(=O)CNC(=O)CNC(=O)CNC(=O)c1ccc(S(N)(=O)=O)cc1)C(=O)O
170 nM	COc1ccc(C[C@H](NC(=O)CNC(=O)CNC(=O)CNC(=O)c2ccc(S(N)(=O)=O)cc2)C(=O)O)cc1

Kd	SMILES
9 nM	CCC(C)C(NC(=O)c1ccc(S(N)(=O)=O)cc1)C(=O)O (centres undefined)
372 nM	NS(=O)(=O)c1ccc(C(=O)NCC(=O)NCC(=O)N[C@@H](CCC(=O)O)C(=O)O)cc1
160 nM	NS(=O)(=O)c1ccc(C(=O)NCC(=O)NCC(=O)NCC(=O)N[C@@H](Cc2ccc3ccccc3c2)C(=O)O)cc1
160 nM	CSCCC(NC(=O)CNC(=O)c1ccc(S(N)(=O)=O)cc1)C(=O)O (centres undefined)
330 nM	C[C@@H](O)[C@H](NC(=O)CNC(=O)CNC(=O)CNC(=O)c1ccc(S(N)(=O)=O)cc1)C(=O)O
140 nM	CCCC[C@H](NC(=O)CNC(=O)CNC(=O)c1ccc(S(N)(=O)=O)cc1)C(=O)O
280 nM	NS(=O)(=O)c1ccc(C(=O)NCC(=O)NC(CO)C(=O)O)cc1 (centres undefined)
300 nM	N=C(N)NCCC[C@H](NC(=O)CNC(=O)CNC(=O)c1ccc(S(N)(=O)=O)cc1)C(=O)O
140 nM	NS(=O)(=O)c1ccc(C(=O)NCC(=O)NC(Cc2ccccc2)C(=O)O)cc1 (centres undefined)
130 nM	NS(=O)(=O)c1ccc(C(=O)NCC(=O)NCC(=O)N[C@@H](Cc2ccc([N+](=O)[O-])cc2)C(=O)O)cc1
140 nM	CC(C)C(NC(=O)CNC(=O)c1ccc(S(N)(=O)=O)cc1)C(=O)O (centres undefined)
230 nM	NS(=O)(=O)c1ccc(C(=O)N2CCCC2C(=O)O)cc1 (centres undefined)
290 nM	CC(C)[C@H](NC(=O)CNC(=O)CNC(=O)CNC(=O)c1ccc(S(N)(=O)=O)cc1)C(=O)O
22 nM	NS(=O)(=O)c1ccc(C(=O)NC(Cc2ccc([N+](=O)[O-])cc2)C(=O)O)cc1 (centres undefined)
130 nM	CC(C)CC(NC(=O)CNC(=O)c1ccc(S(N)(=O)=O)cc1)C(=O)O (centres undefined)
170 nM	COc1ccc(C[C@H](NC(=O)CNC(=O)CNC(=O)c2ccc(S(N)(=O)=O)cc2)C(=O)O)cc1
340 nM	NS(=O)(=O)c1ccc(C(=O)NCC(=O)NCC(=O)N2CCC[C@H]2C(=O)O)cc1
210 nM	CC(C)C[C@H](NC(=O)CNC(=O)CNC(=O)c1ccc(S(N)(=O)=O)cc1)C(=O)O
290 nM	NS(=O)(=O)c1ccc(C(=O)NCC(=O)NCC(=O)O)cc1
120 nM	CC(NC(=O)c1ccc(S(N)(=O)=O)cc1)C(=O)O (centres undefined)
270 nM	NC(=O)C[C@H](NC(=O)CNC(=O)CNC(=O)c1ccc(S(N)(=O)=O)cc1)C(=O)O

Kd	SMILES
230 nM	NS(=O)(=O)c1ccc(C(=O)NCC(=O)NCC(=O)NCC(=O)O)cc1
140 nM	CCCCC(NC(=O)CNC(=O)c1ccc(S(N)(=O)=O)cc1)C(=O)O (centres undefined)
190 nM	Nc1ccc(C[C@H](NC(=O)CNC(=O)CNC(=O)CNC(=O)c2ccc(S(N)(=O)=O)cc2)C(=O)O)cc1
150 nM	NS(=O)(=O)c1ccc(C(=O)NCC(=O)NC(Cc2ccc([N+](=O)[O-])cc2)C(=O)O)cc1 (centres undefined)
320 nM	CC(O)C(NC(=O)CNC(=O)c1ccc(S(N)(=O)=O)cc1)C(=O)O (centres undefined)
200 nM	NS(=O)(=O)c1ccc(C(=O)NCC(=O)NCC(=O)NCC(=O)N[C@@H](Cc2ccccc2)C(=O)O)cc1
230 nM	CC[C@H](C)[C@H](NC(=O)CNC(=O)CNC(=O)c1ccc(S(N)(=O)=O)cc1)C(=O)O
220 nM	N=C(N)NCCCC(NC(=O)c1ccc(S(N)(=O)=O)cc1)C(=O)O (centres undefined)
64 nM	Nc1ccc(CC(NC(=O)c2ccc(S(N)(=O)=O)cc2)C(=O)O)cc1 (centres undefined)
17 nM	NS(=O)(=O)c1ccc(C(=O)NC(Cc2ccc(F)cc2)C(=O)O)cc1 (centres undefined)
190 nM	N=C(N)NCCCC(NC(=O)CNC(=O)c1ccc(S(N)(=O)=O)cc1)C(=O)O (centres undefined)
240 nM	CC(C)(C)[C@H](NC(=O)CNC(=O)CNC(=O)c1ccc(S(N)(=O)=O)cc1)C(=O)O
230 nM	CC[C@H](C)[C@H](NC(=O)CNC(=O)CNC(=O)CNC(=O)c1ccc(S(N)(=O)=O)cc1)C(=O)O
210 nM	CC(C)C[C@H](NC(=O)CNC(=O)CNC(=O)CNC(=O)c1ccc(S(N)(=O)=O)cc1)C(=O)O
260 nM	CC(C)[C@H](NC(=O)CNC(=O)CNC(=O)c1ccc(S(N)(=O)=O)cc1)C(=O)O
380 nM	NC(=O)CC(NC(=O)c1ccc(S(N)(=O)=O)cc1)C(=O)O (centres undefined)
330 nM	Nc1ccc(CC(NC(=O)CNC(=O)c2ccc(S(N)(=O)=O)cc2)C(=O)O)cc1 (centres undefined)
170 nM	COc1ccc(CC(NC(=O)CNC(=O)c2ccc(S(N)(=O)=O)cc2)C(=O)O)cc1 (centres undefined)
160 nM	CSCC[C@@H](NC(=O)CNC(=O)CNC(=O)c1ccc(S(N)(=O)=O)cc1)C(=O)O
150 nM	CC(C)(C)C(NC(=O)CNC(=O)c1ccc(S(N)(=O)=O)cc1)C(=O)O (centres undefined)
10 nM	CSCCC(NC(=O)c1ccc(S(N)(=O)=O)cc1)C(=O)O (centres undefined)

Kd	SMILES
500 nM	NS(=O)(=O)c1ccc(C(=O)NCC(=O)NC(CCC(=O)O)C(=O)O)cc1 (centres undefined)
240 nM	NS(=O)(=O)c1ccc(C(=O)NC(CO)C(=O)O)cc1 (centres undefined)
280 nM	NC(=O)CC[C@H](NC(=O)CNC(=O)CNC(=O)CNC(=O)c1ccc(S(N)(=O)=O)cc1)C(=O)O
15 nM and 14 nM	NS(=O)(=O)c1ccc(C(=O)NC(Cc2ccc(Cl)cc2)C(=O)O)cc1 (centres undefined)
190 nM and 220 nM	CCCC[C@H](NC(=O)CNC(=O)CNC(=O)CNC(=O)c1ccc(S(N)(=O)=O)cc1)C(=O)O ({Benzoyl(4-SO2NH2)}-GGG[Nle]-OH)
13 nM	NS(=O)(=O)c1ccc(C(=O)NC(Cc2ccccc2)C(=O)O)cc1 (centres undefined)
160 nM	CCC(C)C(NC(=O)CNC(=O)c1ccc(S(N)(=O)=O)cc1)C(=O)O (centres undefined)
9 nM	CC(C)CC(NC(=O)c1ccc(S(N)(=O)=O)cc1)C(=O)O (centres undefined)
140 nM	NS(=O)(=O)c1ccc(C(=O)NCC(=O)NCC(=O)N[C@@H](Cc2ccccc2)C(=O)O)cc1
300 nM	NS(=O)(=O)c1ccc(C(=O)NCC(=O)NCC(=O)NCC(=O)N[C@@H](CC(=O)O)C(=O)O)cc1
300 nM	C[C@H](NC(=O)CNC(=O)CNC(=O)CNC(=O)c1ccc(S(N)(=O)=O)cc1)C(=O)O
15 nM	CC(C)C(NC(=O)c1ccc(S(N)(=O)=O)cc1)C(=O)O (centres undefined)
1100 nM	NS(=O)(=O)c1ccc(C(=O)NC(CC(=O)O)C(=O)O)cc1 (centres undefined)
9 nM	CC(C)(C)C(NC(=O)c1ccc(S(N)(=O)=O)cc1)C(=O)O (centres undefined)
53 nM	CC(O)C(NC(=O)c1ccc(S(N)(=O)=O)cc1)C(=O)O (centres undefined)
5 nM	CCCCC(NC(=O)c1ccc(S(N)(=O)=O)cc1)C(=O)O (centres undefined)
390 nM and 360 nM	NS(=O)(=O)c1ccc(C(=O)NCC(=O)NCC(=O)NCC(=O)NCC(=O)O)cc1 ({Benzoyl(4-SO2NH2)}-GGGG-OH)
210 nM	Nc1ccc(C[C@H](NC(=O)CNC(=O)CNC(=O)c2ccc(S(N)(=O)=O)cc2)C(=O)O)cc1
250 nM	C[C@H](NC(=O)CNC(=O)CNC(=O)c1ccc(S(N)(=O)=O)cc1)C(=O)O
530 nM	NS(=O)(=O)c1ccc(C(=O)NC(CCC(=O)O)C(=O)O)cc1 (centres undefined)
130 nM	NS(=O)(=O)c1ccc(C(=O)NCC(=O)NC(Cc2ccc(F)cc2)C(=O)O)cc1 (centres undefined)

SMILES	Kd
NS(=O)(=O)c1ccc(C(=O)NCC(=O)NCC(=O)NCC(=O)N[C@@H](Cc2ccc(Cl)cc2)C(=O)O)cc1 ({Benzoyl(4-SO2NH2)}-GGG[Phe(4-Cl)]-OH)	96 nM and 99 nM
NS(=O)(=O)c1ccc(C(=O)NCC(=O)N2CCCC2C(=O)O)cc1 (centres undefined)	250 nM
NS(=O)(=O)c1ccc(C(=O)NCC(=O)NCC(=O)NC(Cc2ccc3ccccc3c2)C(=O)O)cc1 (centres undefined)	160 nM
NS(=O)(=O)c1ccc(C(=O)NCC(=O)NC(Cc2ccc3ccccc3c2)C(=O)O)cc1 (centres undefined)	130 nM
NS(=O)(=O)c1ccc(C(=O)NCC(=O)NCC(=O)N[C@@H](Cc2ccc(Cl)cc2)C(=O)O)cc1	94 nM
NS(=O)(=O)c1ccc(C(=O)NCC(=O)NCC(=O)NCC(=O)N2CCC[C@H]2C(=O)O)cc1	330 nM
NS(=O)(=O)c1ccc(C(=O)NC(Cc2ccc3ccccc3c2)C(=O)O)cc1 (centres undefined)	17 nM

What follows are compounds tested against T1, Carbonic anhydrase 2.
Description: Kinetic constant for binding human carbonic anhydrase II

k off	SMILES
0.022 s⁻¹	NS(=O)(=O)c1ccc(C(=O)NC(Cc2ccc(Cl)cc2)C(=O)O)cc1 (centres undefined)
0.093 s⁻¹	CCCC[C@H](NC(=O)CNC(=O)CNC(=O)CNC(=O)c1ccc(S(N)(=O)=O)cc1)C(=O)O ({Benzoyl(4-SO2NH2)}-GGG[Nle]-OH)
0.011 s⁻¹	CCCCC(NC(=O)c1ccc(S(N)(=O)=O)cc1)C(=O)O (centres undefined)
0.09 s⁻¹	NS(=O)(=O)c1ccc(C(=O)NCC(=O)NCC(=O)NCC(=O)NCC(=O)O)cc1 ({Benzoyl(4-SO2NH2)}-GGGG-OH)

SMILES	k off
NS(=O)(=O)c1ccc(C(=O)NCC(=O)NCC(=O)NCC(=O)N[C@@H](Cc2ccc(Cl)cc2)C(=O)O)cc1 ({Benzoyl(4-SO2NH2)}-GGG[Phe(4-Cl)]-OH)	0.084 s⁻¹

Molecular target: T1, Carbonic anhydrase 2
Remark: another data set of the same source
Description: Kinetic constant for binding human carbonic anhydrase II (Kon=Kd x Koff)

k on	SMILES
420000 M⁻¹ s⁻¹	CCCC[C@H](NC(=O)CNC(=O)CNC(=O)CNC(=O)c1ccc(S(N)(=O)=O)cc1)C(=O)O ({Benzoyl(4-SO2NH2)}-GGG[Nle]-OH)
250000 M⁻¹ s⁻¹	NS(=O)(=O)c1ccc(C(=O)NCC(=O)NCC(=O)NCC(=O)NCC(=O)O)cc1 ({Benzoyl(4-SO2NH2)}-GGGG-OH)

SMILES	k on
NS(=O)(=O)c1ccc(C(=O)NCC(=O)NCC(=O)NCC(=O)N[C@@H](Cc2ccc(Cl)cc2)C(=O)O)cc1 ({Benzoyl(4-SO2NH2)}-GGG[Phe(4-Cl)]-OH)	850000 M⁻¹ s⁻¹
